Assay results published in patent US20240252488A1 (KOREA RESEARCH INSTITUTE OF CHEMICAL TECHNOLOGY, priority 2020, published 2024).

Key:
[1] = system: FADD−/− Jurkat cells; assay: Necroptosis inhibition assay, TNF-α-induced necroptosis (CellTiter-Glo 2.0); assay type: cell-based, human; conditions: TNF-α 15 ng/mL; for Necroptosis inhibition assay (Rescue %) 1 μM: compound 1 μM; for Necroptosis inhibition assay (Rescue %) 10 μM: compound 10 μM
Summary of the method: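 Tested at three fixed concentrations (0.1, 1, 10 μM final) with a 30-minute room-temperature preincubation ahead of 15 ng/mL TNF-α challenge lasting 20 to 24 hours. Inhibition rate and cytotoxicity derive from ATP luminescence.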

[2] = target: T1, MLKL (Homo sapiens, UniProt Q8NB16); assay: MLKL degradation assay in HepG2 cell line (western blot); assay type: cell-based; set-up: endogenous in cells; host or cells: HepG2 or HaCaT; conditions: cell line not given; for Degradation assay (Degradation %) 1 μM: compound 1 μM; for Degradation assay (Degradation %) 10 μM: compound 10 μM
T1 sequence (Q8NB16 1-471): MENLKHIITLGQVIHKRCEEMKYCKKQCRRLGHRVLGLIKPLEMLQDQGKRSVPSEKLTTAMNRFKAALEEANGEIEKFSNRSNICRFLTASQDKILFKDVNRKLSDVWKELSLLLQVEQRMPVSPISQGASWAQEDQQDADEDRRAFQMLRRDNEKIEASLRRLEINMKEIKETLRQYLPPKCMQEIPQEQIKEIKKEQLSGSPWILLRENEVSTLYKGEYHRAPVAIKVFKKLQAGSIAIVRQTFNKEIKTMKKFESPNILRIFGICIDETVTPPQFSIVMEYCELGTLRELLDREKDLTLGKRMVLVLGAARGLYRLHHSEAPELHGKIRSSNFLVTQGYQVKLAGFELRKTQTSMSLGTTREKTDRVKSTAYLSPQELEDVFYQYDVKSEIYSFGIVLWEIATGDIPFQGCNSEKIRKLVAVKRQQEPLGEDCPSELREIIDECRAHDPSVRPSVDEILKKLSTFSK
Experimental: MLKL degradation ability was evaluated in the following method.
1 mL of Human liver cancer cell line (HepG2 cell line) or human skin cell line (HaCaT cell line) was equally distributed into each well at 2.0×10^5 cells/mL in a 12-well cell culture plate. On the next day, the medium was replaced with a medium made so that the final concentration of test compound was 1 or 10 μM (1 mL/well), and incubated in 5% CO2, at 37° C. for 20-24 hours (Thermo scientific, Forma steri-cycle).
For protein preparation after incubation, cells were washed with 1×TBST, and 60 μL of RIPA lysis buffer containing Halt™ Protease and Phosphatase Inhibitor Cocktail was dispensed into each well. After scraping the cells with a scraper, the cells were recovered, and the pallet was homogenized and reacted on ice for 30 minutes. After the cells were centrifuged at 13,000 rpm, 10 minutes, 4° C., the supernatant was transferred to a new E-tube. For protein quantification, after dispensing sample and BCA (0-4 mg/ml) in a 96 well plate, 100 μL of BCA was dispensed and reacted in a 37° C. incubator for 30 minutes. After measuring the absorbance (SpectraMax, M5e, 562 nm), the amount of the sample was adjusted with the same concentration of protein and 4× Laemmli sample buffer, DW, and reacted at 100° C. for 5 minutes.
After assembling the MP TGX Precast Gel in the Mini-PROTEAN Tetra Cell, the same protein (10-15 μg) was added in an 8-10 μL volume per well, 1×Tris-Glycine Buffer was added, and loading was performed. After loading was completed, transfer was performed using Pierce G2 Fast Blotter and Pierce 1-Step Transfer Buffer. After completion of the transfer, 10 ml of SuperBlock™ Blocking Buffer was dispensed and reacted at room temperature for 10 minutes. 5% BSA containing the primary antibody was dispensed and reacted over night at 4° C. The next day, washing was performed three times with 1×TBST at room temperature for 10 minutes. 5% BSA containing the secondary antibody was dispensed and reacted at room temperature for 1 hour. Washing was performed three times with 1×TBST at room temperature for 10 minutes. The amount of protein expression was measured using chemiluminescence (LuminoGraph, ATTO).

[3] = target: T1, MLKL; assay: Measurement of binding affinity with MLKL receptor (competitive binding assay, Kd); set-up: made in house; host or cells: HEK 293 cell line (T7 phage in E. coli BL21-derived host is also described)
Summary of the method: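 HEK 293-expressed, DNA-tagged MLKL; ligand beads blocked with biotin and SeaBlock/1% BSA/0.05% Tween 20/1 mM DTT buffer. Cpd from 111× DMSO stock, 0.9% DMSO final. Eluted kinase by qPCR → Kd.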

Compound	Degradation assay (Degradation %) 1 μM [2]	Degradation assay (Degradation %) 10 μM [2]	Kd [3]	Necroptosis inhibition assay (Rescue %) 1 μM [1]	Necroptosis inhibition assay (Rescue %) 10 μM [1]
Nc1ncc(-c2cnn(C3CCN(C(=O)CCCCCC#Cc4cccc5c4CN(C4CCC(=O)NC4=O)C5=O)CC3)c2)nc1C(=O)O[C@@H](C(=O)Nc1ccc(F)cc1)c1ccccc1 (stereo partly drawn) [TDH-423, (R)-2-((4-fluorophenyl)amino)-2-oxo-1-phenylethyl 3-amino-6-(1-(1-(8-(2-(2,6-dioxopiperidin-3-yl)-1-oxoisoindolin-4-yl)oct-7-ynoyl)piperidin-4-yl)-1H-pyrazol-4-yl)pyrazine-2-carboxylate]	61.54%	39.01%	9.8 nM	–	–
Nc1ncc(-c2cnn(C3CCN(C(=O)CCCCCNC(=O)CNc4ccc5c(c4)C(=O)N(C4CCC(=O)NC4=O)C5=O)CC3)c2)nc1C(=O)O[C@@H](C(=O)Nc1ccc(F)cc1)c1ccccc1 (stereo partly drawn) [TDH-123, (R)-2-((4-fluorophenyl)amino)-2-oxo-1-phenylethyl 3-amino-6-(1-(1-(6-(2-((2-(2,6-dioxopiperidin-3-yl)-1,3-dioxoisoindolin-5-yl)amino)acetamido)hexanoyl)piperidin-4-yl)-1H-pyrazol-4-yl)pyrazine-2-carboxylate]	–	–	0.89 nM	8.69%	8.92%
Nc1ncc(-c2ccc(N3CCN(CC4CCN(C(=O)C5CCN(c6ccc7c(c6)C(=O)N(C6CCC(=O)NC6=O)C7=O)CC5)CC4)CC3)nc2)nc1C(=O)OC(C(=O)Nc1ccc(F)cc1)c1ccccc1 (centres unmarked) [TDH-231, 2-((4-fluorophenyl)amino)-2-oxo-1-phenylethyl 3-amino-6-(6-(4-((1-(1-(2-(2,6-dioxopiperidin-3-yl)-1,3-dioxoisoindolin-5-yl)piperidine-4-carbonyl)piperidin-4-yl)methyl)piperazin-1-yl)pyridin-3-yl)pyrazine-2-carboxylate]	–	–	140 nM	15.47%	11.4%
Nc1ncc(C2=CCN(CCOCCOCCNC(=O)CNc3ccc4c(c3)C(=O)N(C3CCC(=O)NC3=O)C4=O)CC2)nc1C(=O)O[C@@H](C(=O)Nc1ccc(F)cc1)c1ccccc1 (stereo partly drawn) [TDH-107, (R)-2-((4-fluorophenyl)amino)-2-oxo-1-phenylethyl 3-amino-6-(1-(2-(2-(2-(2-((2-(2,6-dioxopiperidin-3-yl)-1,3-dioxoisoindolin-5-yl)amino)acetamido)ethoxy)ethoxy)ethyl)-1,2,3,6-tetrahydropyridin-4-yl)pyrazine-2-carboxylate]	–	–	560 nM	24.34%	50.16%
Nc1ncc(-c2cnn(C3CCN(CC4CCN(c5cccc6c5C(=O)N(C5CCC(=O)NC5=O)C6=O)CC4)CC3)c2)nc1C(=O)N[C@@H](C(=O)Nc1ccc(F)cc1)c1ccccc1 (stereo partly drawn) [TDH-208, 3-amino-6-(1-(1-((1-(2-(2,6-dioxopiperidin-3-yl)-1,3-dioxoisoindolin-4-yl)piperidin-4-yl)methyl)piperidin-4-yl)-1H-pyrazol-4-yl)-N-((R)-2-((4-fluorophenyl)amino)-2-oxo-1-phenylethyl)pyrazine-2-carboxamide]	–	–	350 nM	–	15.28%

Now from value to compound, other results behind:

Degradation assay (Degradation %) 1 μM [2]	Degradation assay (Degradation %) 10 μM [2]	Kd [3]	Compound	Necroptosis inhibition assay (Rescue %) 1 μM [1]	Necroptosis inhibition assay (Rescue %) 10 μM [1]
48.55%	56.91%	2.8 nM	Nc1ncc(-c2cnn(C3CCN(CCCCCCNC(=O)C4CCN(c5ccc6c(c5)C(=O)N(C5CCC(=O)NC5=O)C6=O)CC4)CC3)c2)nc1C(=O)O[C@@H](C(=O)Nc1ccc(F)cc1)c1ccccc1 (stereo partly drawn) [TDH-109, (R)-2-((4-fluorophenyl)amino)-2-oxo-1-phenylethyl 3-amino-6-(1-(1-(6-(1-(2-(2,6-dioxopiperidin-3-yl)-1,3-dioxoisoindolin-5-yl)piperidine-4-carboxamido)hexyl)piperidin-4-yl)-1H-pyrazol-4-yl)pyrazine-2-carboxylate]	71.74%	48.69%
21.78%	14.94%	240 nM	Nc1ncc(-c2cnn(C3CCN(CC4CCN(C(=O)CNc5cccc6c5C(=O)N(C5CCC(=O)NC5=O)C6=O)CC4)CC3)c2)nc1C(=O)N[C@@H](C(=O)Nc1ccc(F)cc1)c1ccccc1 (stereo partly drawn) [TDH-206, 3-amino-6-(1-(1-((1-((2-(2,6-dioxopiperidin-3-yl)-1,3-dioxoisoindolin-4-yl)glycyl)piperidin-4-yl)methyl)piperidin-4-yl)-1H-pyrazol-4-yl)-N-((R)-2-((4-fluorophenyl)amino)-2-oxo-1-phenylethyl)pyrazine-2-carboxamide]	–	–
18.61%	30.36%	50 nM	Nc1ncc(-c2ccc(N3CCN(CCOCCOCCNC(=O)CNc4cccc5c4C(=O)N(C4CCC(=O)NC4=O)C5=O)CC3)nc2)nc1C(=O)OC(C(=O)Nc1ccc(F)cc1)c1ccccc1 (centres unmarked) [TDH-259, 2-((4-fluorophenyl)amino)-2-oxo-1-phenylethyl 3-amino-6-(6-(4-(2-(2-(2-(2-((2-(2,6-dioxopiperidin-3-yl)-1,3-dioxoisoindolin-4-yl)amino)acetamido)ethoxy)ethoxy)ethyl)piperazin-1-yl)pyridin-3-yl)pyrazine-2-carboxylate]	–	–
49.22%	39.81%	35 nM	Nc1ncc(-c2cnn(C3CCN(CCCCCCCCCCNC(=O)C4CN(c5cccc6c5C(=O)N(C5CCC(=O)NC5=O)C6=O)C4)CC3)c2)nc1C(=O)O[C@@H](C(=O)Nc1ccc(F)cc1)c1ccccc1 (stereo partly drawn) [TDH-158, (R)-2-((4-fluorophenyl)amino)-2-oxo-1-phenylethyl 3-amino-6-(1-(1-(10-(1-(2-(2,6-dioxopiperidin-3-yl)-1,3-dioxoisoindolin-4-yl)azetidine-3-carboxamido)decyl)piperidin-4-yl)-1H-pyrazol-4-yl)pyrazine-2-carboxylate]	–	–
–	–	9.4 nM	Nc1ncc(-c2cnn(C3CCN(CCCCCCCCCCNc4ccc5c(c4)C(=O)N(C4CCC(=O)NC4=O)C5=O)CC3)c2)nc1C(=O)O[C@@H](C(=O)Nc1ccc(F)cc1)c1ccccc1 (stereo partly drawn) [TDH-160, (R)-2-((4-fluorophenyl)amino)-2-oxo-1-phenylethyl 3-amino-6-(1-(1-(10-((2-(2,6-dioxopiperidin-3-yl)-1,3-dioxoisoindolin-5-yl)amino)decyl)piperidin-4-yl)-1H-pyrazol-4-yl)pyrazine-2-carboxylate]	3.59%	–
–	–	120 nM	Nc1ncc(C2=CCN(C(=O)CCCCCNC(=O)C3CN(c4ccc5c(c4)C(=O)N(C4CCC(=O)NC4=O)C5=O)C3)CC2)cc1C(=O)O[C@@H](C(=O)Nc1ccc(F)cc1)c1ccccc1 (stereo partly drawn) [TDH-092, (R)-2-((4-fluorophenyl)amino)-2-oxo-1-phenylethyl 6-amino-1′-(6-(1-(2-(2,6-dioxopiperidin-3-yl)-1,3-dioxoisoindolin-5-yl)azetidine-3-carboxamido)hexanoyl)-1′,2′,3′,6′-tetrahydro-[3,4′-bipyridine]-5-carboxylate]	2.1%	–
